The compounds below were run against CDK2 (human) (UniProt P24941) (assay: Enzyme Assay).

Row | IC50 [µM] | Structure (SMILES)
1 | < 10 | CC(C)c1[nH]ncc1-c1ccnc(NCC2CCCO2)c1 (stereo not drawn)
2 | < 5 | Cc1n[nH]cc1-c1ccnc(NC2Cc3ccccc3C2)n1
3 | < 0.5 | CC(C)c1[nH]ncc1-c1ccnc(NC2CCC2)c1
4 | < 5 | CC(C)c1n[nH]cc1-c1ccnc(NC(C)c2ccccc2)n1 (stereo not drawn)
5 | < 5 | Cc1n[nH]cc1-c1ccnc(NC2CCCCC2)n1
6 | < 5 | CC(C)c1[nH]ncc1-c1ccnc(NC(C)c2ccccc2)c1 (stereo not drawn)
7 | < 10 | Cc1n[nH]cc1-c1ccnc(NCc2cccnc2)n1
8 | < 5 | CC(C)c1n[nH]cc1-c1ccnc(NCCCN(C)c2ccccc2)n1
9 | < 0.5 | CC(C)c1[nH]ncc1-c1ccnc(NC2CCCCC2)c1
10 | < 1 | c1cc(-c2cn[nH]c2C2CCCC2)cc(NC2CC2)n1
11 | < 15 | CC(C)c1[nH]ncc1-c1ccnc(NC(CO)C(C)C)c1 (stereo not drawn)
12 | < 10 | Cc1n[nH]cc1-c1ccnc(NCc2cccc(C(F)(F)F)c2)n1
13 | < 5 | CC(C)c1[nH]ncc1-c1ccnc(NCC2CC2)c1
14 | < 5 | Cc1n[nH]cc1-c1ccnc(NC2CCN(c3ccccc3)CC2)n1
15 | < 5 | CC(C)c1[nH]ncc1-c1ccnc(NCc2ccccc2)c1
16 | < 1 | COCC(C)Nc1nccc(-c2c[nH]nc2C(C)C)n1 (stereo not drawn)
17 | < 10 | Cc1n[nH]cc1-c1ccnc(NCCCn2ccnc2)n1
18 | < 10 | COCCNc1cc(-c2cn[nH]c2C(C)C)ccn1
